Assay results reported in patent US8258114B2, “Modulation of glucose-6-phosphatase translocase expression” (Isis Pharmaceuticals, Inc., priority 2004, dated 2012).

Experiments:
Assay type in all cases: in vivo, mouse
[1] = system: glucose-6-phosphatase translocase mRNA; assay: Target mRNA reduction in liver of db/db mice (Example 10); conditions: 25 mg/kg s.c. twice weekly, end of study
Description: Seven-week old male C57B1/6J-Lepr db/db mice (Jackson Laboratory, Bar Harbor, Me.) were fed a diet with a fat content of about 14% and were subcutaneously injected with one or more of the oligomeric compounds of the invention or a control compound at a dose of 25 mg/kg two times per week. Glucose-6-phosphatase translocase antisense oligonucleotides used were ISIS 148985 (SEQ ID NO: 118) and ISIS 149008 (SEQ ID NO: 141). ISIS 116847 (SEQ ID NO: 143), targeted to mouse PTEN, was used as a positive control. The scrambled control oligonucleotide ISIS 141923 ([…], incorporated herein as SEQ ID NO: 144) served as a negative control along with saline-injected animals. ISIS 141923 and ISIS 116847 are chimeric oligonucleotides (“gapmers”) 20 nucleotides in length, composed of a central “gap” region consisting of 10 2′-deoxynucleotides, which is flanked on both sides (5′ and 3′) by five-nucleotide “wings”. The wings are composed of 2′-O-(2-methoxyethyl) nucleotides, also known as 2′-MOE nucleotides. The internucleoside (backbone) linkages are phosphorothioate throughout the oligonucleotide. All cytidine residues are 5-methylcytidines.
48 hours after the final treatment, mice were sacrificed and target levels were evaluated in liver. RNA isolation and target mRNA expression level quantitation were performed as described by other examples herein.
Glucose-6-phosphatase translocase mRNA levels in db/db mouse livers were measured at the end of study using RIBOGREEN™ RNA quantification reagent (Molecular Probes, Inc. Eugene, Oreg.) as taught in previous examples above. Unless otherwise noted, data are expressed as the average percent inhibition from 5 animals per treatment group.

db/db mice = assay: Oral glucose tolerance test in db/db mice (Table 10)
Description: (§1) The mice described in Example 11 were evaluated for performance on glucose tolerance tests after the 6th dose of saline or antisense oligonucleotides. Through measurement of glucose levels following the administration of a bolus of glucose, tolerance tests assess the physiological response to a glucose challenge.
(§2) Oral glucose tolerance tests (OGTT) were performed during week 3 of treatment with saline, ISIS 116847 (targeted to PTEN, SEQ ID NO: 143), ISIS 149008 (SEQ ID NO: 141), ISIS 148985 (SEQ ID NO: 118), or ISIS 141923 (SEQ ID NO: 144). To provide a baseline glucose level, fasted blood glucose levels were measured before the challenge. Glucose was administered by oral gavage via an 18 g gavage needle at a dose of 1 g/kg. Plasma glucose levels were measured for 30, 60, 90 and 120 minutes post-challenge using an Ascencia Glucometer Elite XL (Bayer, Tarrytown, N.Y.).
The results are presented in Table 10 as the average plasma glucose level (in mg/dL) per time point from each treatment group (n=7).

ob/ob mice [2] = assay: Oral glucose tolerance test in ob/ob mice (Table 6); conditions: 25 mg/kg twice weekly; for plasma glucose, OGTT: after 6th dose
Description: as §1, with “7” for “11”
as §2, with “during the third” for “during”, “week” for “week 3”, “ISIS” for “ISIS 149008 (SEQ ID NO: 141), ISIS”, “149008” for “141923”, “141).” for “144).”
The results are presented in Table 6 as the average result (plasma glucose in mg/dL) from each treatment group (n=7). Saline-treated mice served as the control to which glucose levels were compared.

[3] = Liver triglycerides and liver glycogen in lean ob/ob+/- mice; conditions: 50 mg/kg s.c. twice weekly, five doses; for Liver glycogen levels: saline approximately 37
Description: Ob/ob mice have a mutation in the leptin gene which results in obesity and hyperglycemia. […] Seven-week old ob/ob+/−male mice were dosed twice weekly with 50 mg/kg of antisense oligonucleotide, given subcutaneously. A total of five doses were given. glucose-6-phosphatase translocase antisense oligonucleotides used were ISIS 148985 (SEQ ID NO: 118) and ISIS 149008 (SEQ ID NO: 141). Each treatment group was comprised of 4 animals. Animals were sacrificed 48 hours after the last dose of oligonucleotide was administered, and liver triglycerides, liver glycogen content, and target reduction in liver were measured.
Liver triglyceride levels are used to assess hepatic steatosis, or accumulation (poor clearing) of lipids in the liver. Tissue triglyceride levels were measured using a Triglyceride GPO assay from Roche Diagnostics (Indianapolis, Ind.). Liver triglycerides were about 19 mg/dL for saline treated lean mice and were about 14 mg/dL for ISIS 149008-treated lean mice.
Tissue glycogen was measured using the Glucose Trinder Reagent (Sigma-Aldrich, St. Louis, Mo.). Glycogen levels of lean mice treated with saline alone were approximately 37 mg/g of tissue. Mice treated with ISIS 149008 or 148985, the antisense inhibitors of glucose-6-phosphatase translocase, had glycogen levels of approximately 39 mg/g and 36 mg/g, respectively.

ob/ob mice [4] = assay: Glycerol tolerance test in ob/ob mice; conditions: 25 mg/kg twice weekly, after 6th dose, glycerol 1 g/kg oral
Description: The mice described in Example 7 were evaluated for performance on glycerol tolerance tests after the 6th dose of saline or antisense oligonucleotides. This is a functional measure of glucose-6-phosphatase translocase inhibition; i.e., whether the conversion of […] to glucose is impaired by antisense inhibitors of glucose-6-phosphatase translocase.
Glycerol tolerance tests were performed after treatment with saline, ISIS 148985 (SEQ ID NO: 118), or ISIS 149008 (SEQ ID NO: 141). Glycerol was administered by oral gavage via an 18 g gavage needle at a dose of 1 g/kg. Plasma glucose levels were measured for 30, 60, 90 and 120 minutes post-challenge using an Ascencia Glucometer Elite XL (Bayer, Tarrytown, N.Y.) and plotted over time. Area under the curve (AUC) for each treatment graph was calculated.

[5] = 25 mg/kg twice weekly, week 3, 0 min post-glucose challenge (fasted)
[6] = 25 mg/kg twice weekly, week 3, 30 min
[7] = 25 mg/kg twice weekly, week 3, 60 min
[8] = 25 mg/kg twice weekly, week 3, 90 min
[9] = 25 mg/kg twice weekly, week 3, 120 min
[10] = 0 min post-glucose challenge (fasted)

Row | Sequence | Glucose-6-phosphatase translocase mRNA levels in liver, reduction compared to saline [1] | plasma glucose, OGTT (db/db mice; [5]) [mg/dL] | plasma glucose, OGTT (db/db mice; [6]) [mg/dL] | plasma glucose, OGTT (db/db mice; [7]) [mg/dL] | plasma glucose, OGTT (db/db mice; [8]) [mg/dL] | plasma glucose, OGTT (db/db mice; [9]) [mg/dL] | plasma glucose, OGTT (ob/ob mice [2]; [10]) [mg/dL] | plasma glucose, OGTT (ob/ob mice [2]; 30 min post-glucose challenge) [mg/dL] | plasma glucose, OGTT (ob/ob mice [2]; 60 min post-glucose challenge) [mg/dL] | plasma glucose, OGTT (ob/ob mice [2]; 90 min post-glucose challenge) [mg/dL] | plasma glucose, OGTT (ob/ob mice [2]; 120 min post-glucose challenge) [mg/dL] | Liver glycogen levels [3] | decrease in AUC of plasma glucose compared to saline, glycerol tolerance test (ob/ob mice [4]) | further results
1 | CCTTCCCTGAAGGTTCCTCC (chemistry not given here) [ISIS 141923, scrambled control oligonucleotide, negative control, reference compound] | about 4% | 284 | 522 | 445 | 338 | 339 |  |  |  |  |  |  |  | 
2 | CTGCTAGCCTCTGGATTTGA (chemistry not given here) [ISIS 116847, positive control oligonucleotide targeted to mouse PTEN, reference compound] | about 8% | 181 | 441 | 367 | 305 | 286 | 286 | 290 | 238 | 229 | 194 |  |  | 
3 | GCTCCATAGCGAGGACTCGA (chemistry not given here) [ISIS 148985] | approximately 19% | 230 | 494 | 445 | 335 | 355 | 293 | 489 | 433 | 331 | 305 | ~36 mg/g | did not show significant decrease in AUC | 
4 | TATACAAGTCGGTTTGCCCT (chemistry not given here) [ISIS 149008] | approximately 82% | 227 | 462 | 326 | 272 | 231 | 237 | 372 | 276 | 238 | 214 | approximately 39 mg/g | approximately 30% | Liver Triglycerides ([3]; saline about 19): about 14 mg/dL; glucose tolerance (in words) (ob/ob mice [2]; OGTT): improved glucose tolerance; plasma glucose, OGTT (db/db mice; 6 mg/kg twice weekly, week 3, 0 min (fasted)): 204 mg/dL; plasma glucose, OGTT (db/db mice; 6 mg/kg twice weekly, week 3, 30 min): 518 mg/dL; plasma glucose, OGTT (db/db mice; 6 mg/kg twice weekly, week 3, 60 min): 468 mg/dL; plasma glucose, OGTT (db/db mice; 6 mg/kg twice weekly, week 3, 90 min): 377 mg/dL; plasma glucose, OGTT (db/db mice; 6 mg/kg twice weekly, week 3, 120 min): 330 mg/dL; plasma glucose, OGTT (db/db mice; 12.5 mg/kg twice weekly, week 3, 0 min (fasted)): 152 mg/dL; plasma glucose, OGTT (db/db mice; 12.5 mg/kg twice weekly, week 3, 30 min): 529 mg/dL; plasma glucose, OGTT (db/db mice; 12.5 mg/kg twice weekly, week 3, 60 min): 427 mg/dL; plasma glucose, OGTT (db/db mice; 12.5 mg/kg twice weekly, week 3, 90 min): 348 mg/dL; plasma glucose, OGTT (db/db mice; 12.5 mg/kg twice weekly, week 3, 120 min): 329 mg/dL; area under the curve (AUC) of OGTT glucose values compared to saline (in words) (db/db mice; 25 mg/kg): significantly reduced the AUC; glucose tolerance (in words) (db/db mice; 6.25 to 25 mg/kg): dose-dependent improvement in glucose tolerance
